Experimental data taken from article PMC5421877, “SOCS3 inhibits the pathological effects of IL-22 in non-melanoma skin tumor-derived keratinocytes” (Oncotarget, 2017).

Legend:
CAL33 cells = test: Scratch assay (migration), CAL33; assay type: cell-based; conditions: 24 h
Protocol: (§1) Figure 6 IL-22-induced proliferation and migration of healthy and transformed keratinocytes is counteracted by KIR-ESS peptide (A) Healthy KC, CAL27 and CAL33 cultures were plated in 96-well plates in quadruplicate for each condition. After 1 day, cells were pre-treated or not with Ctrl1 or KIR-ESS peptides (40 μM), or S31-201 ([…]) and PD98059 ([…]) chemical inhibitors, and, then, stimulated or not with 50 ng/ml of IL-22. Data relative to 48-h treatment are shown and expressed as the values of fluorescence intensity obtained from untreated and IL-22-treated ± SD. Three independent experiments were performed. *p < 0.01. (B) Scratch assays were carried out on healthy or SCC-lines, pre-incubated with mitomycin C (5 mg/ml), pre-treated with Ctrl1 or KIR-ESS peptides (40 μM), or S31-201 ([…]) or PD98059 ([…]) chemical inhibitors, and, then, stimulated or not with IL-22 for 24 h. Microscopic images were taken immediately after and 24 h after wound induction on confluent cell layers. Initial scratches (0 h) are dashed blank. (C) Cell-free area was measured and indicated as residual wound. Data are reported as healed wound (gray area of bars) vs residual wound (white area of bars) which a value of 100% was given. *p < 0.01.
(§2) Cultured keratinocytes and SCC cell lines were grown at 100% confluence on type IV collagen (20 μg/ml), and then incubated with mitomycin C (5 mg/ml) (Sigma-Aldrich) for 1 h. Cell monolayers were scratched with the tip of a p-200 pipette to create uniform cell-free zones, and, then, pre-treated with appropriate concentrations of SOCS3 mimetic or control peptides, or with 10 μM STAT3 (S3I-201, Santa Cruz) and 20 μM Erk1/2 (PD98059, Calbiochem) inhibitors for 1 h, before treating by 50 ng/ml of IL-22. Microscopy pictures were taken with a digital camera at different time points following IL-22 treatment. The residual gap between migrating keratinocytes was measured with a computer-assisted image analysis system (Axiovision; Zeiss, Oberkochen, Germany), and expressed as percentage of the initial scratched area.

CAL27 cells = test: Scratch assay (migration), CAL27; assay type: cell-based; conditions: CAL27; 40 μM peptide, PD98059 20 μM or S3I-201 10 μM; IL-22 50 ng/ml, 24 h
Protocol: as §1, §2

[1] = tested on: SCC-cell lines (CAL27 and CAL33); test: CyQUANT proliferation assay, SCC-cell lines; assay type: cell-based; conditions: PD98059 20 μM or S3I-201 10 μM, 48 h
Protocol: (§3) Figure 6 IL-22-induced proliferation and migration of healthy and transformed keratinocytes is counteracted by KIR-ESS peptide (A) Healthy KC, CAL27 and CAL33 cultures were plated in 96-well plates in quadruplicate for each condition. After 1 day, cells were pre-treated or not with Ctrl1 or KIR-ESS peptides (40 μM), or S31-201 ([…]) and PD98059 ([…]) chemical inhibitors, and, then, stimulated or not with 50 ng/ml of IL-22. Data relative to 48-h treatment are shown and expressed as the values of fluorescence intensity obtained from untreated and IL-22-treated ± SD. Three independent experiments were performed. *p < 0.01. […] (C) Cell-free area was measured and indicated as residual wound. […]
(§4) SOCS1- and SOCS3 stably transfected keratinocytes or cultured keratinocytes previously transfected with SOCS3 or control siRNA were seeded in 96-well plates (1.5–2.0 × 10^4 cells/well), and, the day after, starved in medium without serum. At 60% confluence, cells were treated with 75 ng/ml of IL-22 for 3 days, stained with 0.5% crystal violet (Bio-Rad, Hercules, CA, USA), and then analyzed in an ELISA reader (model 3550 UV ELISA reader; Bio-Rad). […] After 1-h pre-incubation, cells were treated with IL-22 or left unstimulated, cultured for other 24, 48 and 72 h, and the number of viable cells determined by CyQUANT Cell Proliferation Assay, accordingly to manufacture's protocol. […]

healthy keratinocytes [2] = test: CyQUANT proliferation assay, healthy keratinocytes; assay type: cell-based, human; conditions: healthy KC; PD98059 20 μM or S3I-201 10 μM, 48 h
Protocol: as §3, §4

healthy keratinocytes [3] = test: Scratch assay (migration), healthy keratinocytes; assay type: cell-based, human; conditions: without IL-22, 40 μM peptide or PD98059 20 μM, 24 h
Protocol: as §3, with “0.01. (B) Scratch assays were carried out on healthy or SCC-lines, pre-incubated with mitomycin C (5 mg/ml), pre-treated with Ctrl1 or KIR-ESS peptides (40 μM), or S31-201 ([…]) or PD98059 ([…]) chemical inhibitors, and, then, stimulated or not with IL-22 for 24 h.” for “0.01.”
Cultured keratinocytes and SCC cell lines were grown at 100% confluence on type IV collagen (20 μg/ml), and then incubated with mitomycin C (5 mg/ml) (Sigma-Aldrich) for 1 h. […] The residual gap between migrating keratinocytes was measured with a computer-assisted image analysis system (Axiovision; Zeiss, Oberkochen, Germany), and expressed as percentage of the initial scratched area.

COc1cccc(-c2cc(=O)c3ccccc3o2)c1N [PD98059]
wound closure / migration, resting cells (CAL33 cells; CAL33, without IL-22, 40 μM peptide or PD98059 20 μM): efficacious in inhibiting migration of CAL27 cells and healthy or CAL33 keratinocytes, respectively | wound closure, IL-22-treated (CAL33 cells; CAL33, 40 μM peptide, PD98059 20 μM or S3I-201 10 μM, IL-22 50 ng/ml): effect similar to those obtained with the chemical Erk1/2 and STAT3 inhibitors | wound closure, IL-22-treated (CAL27 cells): effect similar to those obtained with the chemical Erk1/2 and STAT3 inhibitors | proliferation (effect relative to KIR-ESS) [1]: KIR-ESS effect was similar to that observed in all healthy and transformed keratinocyte cultures | proliferation (effect relative to KIR-ESS) (healthy keratinocytes [2]): KIR-ESS effect was similar to that observed in all healthy and transformed keratinocyte cultures | wound closure / migration, resting cells (healthy keratinocytes [3]): efficacious in inhibiting migration of CAL27 cells and healthy or CAL33 keratinocytes, respectively
